pIC50: −log10 of the molar value.
Columns and labels:
Format in all cases: biochemical
K-Ras G12D = target: T1, K-Ras G12D (Homo sapiens, UniProt P01116, G12D); assay: HTRF resonance energy transfer assay, K-Ras G12D / SOS1 interaction; conditions: HTRF assay of Example 5; read-out: IC50 against K-Ras G12D
T1 construct: made in house; host or cells: E. coli BL21 (DE3)
Description: (§1) This assay can be also used to assess a selective inhibition or reduction of signaling output of a mutant Ras protein relative to a wildtype, or relative to a different mutant Ras protein. For example, the equilibrium interaction of wildtype Kras or K-Ras mutant (e.g., wildtype or a mutant thereof) with SOS1 (e.g., hSOS1) can be assessed as a proxy or an indication for a subject compound's ability to bind and inhibit Ras protein. HTRF assay detects from (i) a fluorescence resonance energy transfer (FRET) donor (e.g., antiGST-Europium) that is bound to GST-tagged K-Ras mutant to (ii) a FRET acceptor (e.g., anti-6His-XL665) bound to a His-tagged hSOS1.
(§2) The assay buffer can contain˜5 mM HEPES pH 7.4, ˜150 mM NaCl, ˜ 1 mM DTT, 0.05% BSA and 0.0025%(v/v) Igepal. A Ras working solution is prepared in an assay buffer containing typically a suitable amount of the protein construct (e.g., GST-tagged K-Ras mutant) and the FRET donor (e.g., antiGST-Eu(K) from Cisbio, France). A SOS1 working solution is prepared in an assay buffer containing suitable amount of the protein construct (e.g., His-hSOS1) and the FRET acceptor (e.g., anti-6His-XL665 from Cisbio, France). A suitable amount of the protein construct will depend on the range of activity or range of IC50 values being detected or under investigation. For detecting IC50 within a range of 500 nM, the protein constructs of the same range of molarity can be utilized.
(§3) A fixed volume of DMSO with or without test compound is transferred into a 384-well plate. Ras working solution is added to all wells of the test plate. SOS1 working solution is added to all wells except for those that are subsequently filled the inhibitor control solution. Upon incubation for about 10 minutes or longer, the fluorescence is measured with a M1000Pro plate reader (Tecan) using HTRF detection (excitation 337 nm, emission 1: 620 nm, emission 2: 665 nm). Compounds are tested in duplicates at different concentrations (for example, 10 μM, 2.5 μM, 0.63 μM, 0.16 μM, 0.04 μM, 0.01 μM test compound). The ratiometric data (i.e., emission 2 divided by emission 1) is used to calculate IC50 values against Ras using GraphPad Prism (GraphPad software). Following this general procedure, samples were tested with or without a subject compound disclosed herein including compounds exemplified in Table 1 to assess their abilities to inhibit a K-Ras mutant relative to another mutant or WT. Signaling output measured in terms of IC50 values can be obtained, a ratio of IC50 against one mutant relative to another mutant can be calculated. For instance, a selective reduction of K-Ras G12D signaling output can be evidenced by a ratio greater than one. In particular, a selective reduction of K-Ras G12D signaling relative to K-Ras WT signaling is evidenced as the ratio of IC50 (against K-Ras WT) to IC50 (against K-Ras G12D) is greater than 1.

K-Ras G12S = target: T2, K-Ras G12S (Homo sapiens, UniProt P01116, G12S); assay: HTRF resonance energy transfer assay, K-Ras G12S / SOS1 interaction; conditions: HTRF assay of Example 5; read-out: IC50 against K-Ras G12S
T2 construct: made in house; host or cells: E. coli BL21 (DE3)
Description: as §1, §2, §3

K-Ras G12V = target: T3, K-Ras G12V (Homo sapiens, UniProt P01116, G12V); assay: HTRF resonance energy transfer assay, K-Ras G12V / SOS1 interaction; conditions: HTRF assay of Example 5; read-out: IC50 against K-Ras G12V
T3 construct: made in house; host or cells: E. coli BL21 (DE3)
Description: as §1, §2, §3

K-Ras WT = target: T4, K-Ras WT (Homo sapiens, UniProt P01116); assay: HTRF resonance energy transfer assay, K-Ras WT / SOS1 interaction; conditions: HTRF assay of Example 5; read-out: IC50 against K-Ras WT
T4 construct: made in house; host or cells: E. coli BL21 (DE3)
Description: as §1, §2, §3

Measured: pIC50

T1 sequence (P01116 1-188 isoform P01116-2 G12D): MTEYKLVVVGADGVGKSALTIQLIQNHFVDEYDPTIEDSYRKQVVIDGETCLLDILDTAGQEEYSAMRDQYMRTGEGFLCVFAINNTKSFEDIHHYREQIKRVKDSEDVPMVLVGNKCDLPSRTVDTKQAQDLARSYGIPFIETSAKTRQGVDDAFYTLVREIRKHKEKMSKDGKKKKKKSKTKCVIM
T4 sequence (P01116 1-188 isoform P01116-2): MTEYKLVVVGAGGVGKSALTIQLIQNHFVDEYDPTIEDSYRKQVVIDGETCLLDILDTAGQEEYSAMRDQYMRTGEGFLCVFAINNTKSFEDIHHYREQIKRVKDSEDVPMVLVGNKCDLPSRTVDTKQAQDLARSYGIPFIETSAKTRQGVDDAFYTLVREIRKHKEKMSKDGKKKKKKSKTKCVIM
T3 sequence (P01116 1-188 isoform P01116-2 G12V): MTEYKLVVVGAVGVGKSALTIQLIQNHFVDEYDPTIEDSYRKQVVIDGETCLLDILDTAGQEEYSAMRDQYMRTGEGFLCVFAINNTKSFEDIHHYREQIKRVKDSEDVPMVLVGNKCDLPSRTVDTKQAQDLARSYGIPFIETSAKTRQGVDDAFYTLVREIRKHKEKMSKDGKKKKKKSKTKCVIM
T2 sequence (P01116 1-188 isoform P01116-2 G12S): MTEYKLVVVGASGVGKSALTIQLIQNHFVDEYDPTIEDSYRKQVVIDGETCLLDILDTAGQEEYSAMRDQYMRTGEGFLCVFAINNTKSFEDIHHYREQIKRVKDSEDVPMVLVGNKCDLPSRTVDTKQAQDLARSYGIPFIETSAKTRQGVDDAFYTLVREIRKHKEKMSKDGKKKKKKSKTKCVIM

C=C[C@H]1COc2c(Cl)c(-c3ccc(F)c4sc(N)c(C#N)c34)c(F)c3nc(OC[C@@]45CCCN4C[C@H](F)C5)nc(c23)N1CCOC (single isomer, unassigned) [Compound 917]
> 7.00: all assays above

N#Cc1c(N)sc2c(F)ccc(-c3c(Cl)c4c5c(nc(OC[C@@]67CCCN6C[C@H](F)C7)nc5c3F)N(C3CCN(C5CC5)C3)CCO4)c12 (stereo partly drawn) [Compound 631, 2-amino-4-(8-chloro-4-(1-cyclopropylpyrrolidin-3-yl)-10-fluoro-2-(((2R,7aS)-2-fluorotetrahydro-1H-pyrrolizin-7a(5H)-yl)methoxy)-5,6-dihydro-4H-[1,4]oxazepino[5,6,7-de]quinazolin-9-yl)-7-fluorobenzo[b]thiophene-3-carbonitrile]
> 7.00: all assays above

N#Cc1c(N)sc2c(F)ccc(-c3c(Cl)c4c5c(nc(OC[C@@]67CCCN6C[C@H](F)C7)nc5c3F)N(C3CC35CCNC5)CCO4)c12 (stereo partly drawn) [Compound 735, 2-amino-4-(8-chloro-10-fluoro-2-(((2R,7aS)-2-fluorotetrahydro-1H-pyrrolizin-7a(5H)-yl)methoxy)-4-(5-azaspiro[2.4]heptan-1-yl)-5,6-dihydro-4H-[1,4]oxazepino[5,6,7-de]quinazolin-9-yl)-7-fluorobenzo[b]thiophene-3-carbonitrile]
> 7.00: all assays above

N#Cc1c(N)sc2c(F)ccc(-c3c(Cl)c4c5c(nc(OC[C@@]67CCCN6C[C@H](F)C7)nc5c3F)N(CC3CC3C#N)CCO4)c12 (stereo partly drawn) [Compound 738, 2-amino-4-(8-chloro-4-((2-cyanocyclopropyl)methyl)-10-fluoro-2-(((2R,7aS)-2-fluorotetrahydro-1H-pyrrolizin-7a(5H)-yl)methoxy)-5,6-dihydro-4H-[1,4]oxazepino[5,6,7-de]quinazolin-9-yl)-7-fluorobenzo[b]thiophene-3-carbonitrile]
> 7.00: all assays above

N#Cc1c(N)sc2c(F)ccc(-c3c(Cl)c4c5c(nc(OC[C@@]67CCCN6C[C@H](F)C7)nc5c3F)N(CC(F)F)[C@@H](C3CC(C#N)C3)CO4)c12 (stereo partly drawn) [Compound 753, 2-amino-4-((S)-8-chloro-5-(3-cyanocyclobutyl)-4-(2,2-difluoroethyl)-10-fluoro-2-(((2R,7aS)-2-fluorotetrahydro-1H-pyrrolizin-7a(5H)-yl)methoxy)-5,6-dihydro-4H-[1,4]oxazepino[5,6,7-de]quinazolin-9-yl)-7-fluorobenzo[b]thiophene-3-carbonitrile]
> 7.00: all assays above

N#Cc1c(N)sc2c(F)ccc(-c3c(Cl)c4c5c(nc(OC[C@@]67CCCN6C[C@H](F)C7)nc5c3F)N(C3CCNCC3)CCO4)c12 [Compound 760, 2-amino-4-(8-chloro-10-fluoro-2-(((2R,7aS)-2-fluorotetrahydro-1H-pyrrolizin-7a(5H)-yl)methoxy)-4-(piperidin-4-yl)-5,6-dihydro-4H-[1,4]oxazepino[5,6,7-de]quinazolin-9-yl)-7-fluorobenzo[b]thiophene-3-carbonitrile]
> 7.00: all assays above

CC(O)C1COc2c(Cl)c(-c3ccc(F)c4sc(N)c(C#N)c34)c(F)c3nc(OC[C@@]45CCCN4C[C@H](F)C5)nc(c23)N1CC1(N(C)C)CCC1 (stereo partly drawn) [Compound 773, 2-amino-4-(8-chloro-4-((1-(dimethylamino)cyclobutyl)methyl)-10-fluoro-2-(((2R,7aS)-2-fluorotetrahydro-1H-pyrrolizin-7a(5H)-yl)methoxy)-5-(1-hydroxyethyl)-5,6-dihydro-4H-[1,4]oxazepino[5,6,7-de]quinazolin-9-yl)-7-fluorobenzo[b]thiophene-3-carbonitrile]
> 7.00: all assays above

CNCCCN1CCOc2c(Cl)c(-c3ccc(F)c4sc(N)c(C#N)c34)c(F)c3nc(OC[C@@]45CCCN4C[C@H](F)C5)nc1c23 [Compound 778, 2-amino-4-(8-chloro-10-fluoro-2-(((2R,7aS)-2-fluorotetrahydro-1H-pyrrolizin-7a(5H)-yl)methoxy)-4-(3-(methylamino)propyl)-5,6-dihydro-4H-[1,4]oxazepino[5,6,7-de]quinazolin-9-yl)-7-fluorobenzo[b]thiophene-3-carbonitrile]
> 7.00: all assays above

N#Cc1c(N)sc2c(F)ccc(-c3c(Cl)c4c5c(nc(OC[C@@]67CCCN6C[C@H](F)C7)nc5c3F)N(C3CCCNC3)CCO4)c12 (stereo partly drawn) [Compound 787, 2-amino-4-(8-chloro-10-fluoro-2-(((2R,7aS)-2-fluorotetrahydro-1H-pyrrolizin-7a(5H)-yl)methoxy)-4-(piperidin-3-yl)-5,6-dihydro-4H-[1,4]oxazepino[5,6,7-de]quinazolin-9-yl)-7-fluorobenzo[b]thiophene-3-carbonitrile]
> 7.00: all assays above

C#C[C@H]1COc2c(Cl)c(-c3ccc(F)c4sc(N)c(C#N)c34)c(F)c3nc(OC[C@@]45CCCN4C[C@H](F)C5)nc(c23)N1CCC(F)F [Compound 788, 2-amino-4-((5S)-8-chloro-4-(3,3-difluoropropyl)-5-ethynyl-10-fluoro-2-(((2R,7aS)-2-fluorotetrahydro-1H-pyrrolizin-7a(5H)-yl)methoxy)-5,6-dihydro-4H-[1,4]oxazepino[5,6,7-de]quinazolin-9-yl)-7-fluorobenzo[b]thiophene-3-carbonitrile]
> 7.00: all assays above

N#Cc1c(N)sc2c(F)ccc(-c3c(Cl)c4c5c(nc(OC[C@@]67CCCN6C[C@H](F)C7)nc5c3F)N(CC(F)F)C(C3CCN3)CO4)c12 (stereo partly drawn) [Compound 816, 2-amino-4-(5-(azetidin-2-yl)-8-chloro-4-(2,2-difluoroethyl)-10-fluoro-2-(((2R,7aS)-2-fluorotetrahydro-1H-pyrrolizin-7a(5H)-yl)methoxy)-5,6-dihydro-4H-[1,4]oxazepino[5,6,7-de]quinazolin-9-yl)-7-fluorobenzo[b]thiophene-3-carbonitrile]
> 7.00: all assays above

N#Cc1c(N)sc2c(F)ccc(-c3c(Cl)c4c5c(nc(OC[C@@]67CCCN6C[C@H](F)C7)nc5c3F)N(C3CNC3)CCO4)c12 [Compound 828, 2-amino-4-(4-(azetidin-3-yl)-8-chloro-10-fluoro-2-(((2R,7aS)-2-fluorotetrahydro-1H-pyrrolizin-7a(5H)-yl)methoxy)-5,6-dihydro-4H-[1,4]oxazepino[5,6,7-de]quinazolin-9-yl)-7-fluorobenzo[b]thiophene-3-carbonitrile]
> 7.00: all assays above
